Data set [1] relates to Spodoptera frugiperda larvae. Kind of data set: Spodoptera frugiperda test (SPDFR spray application). The note with it: application rate 500 g/ha; maize plants. It counts as in vivo. The protocol:
Spodoptera frugiperda Test (SPDFR Spray Application)
Solvents: 78.0 parts by weight of acetone • • 1.5 parts by weight of dimethylformamide Emulsifier: 0.6 part by weight of alkylaryl polyglycol ether
Maize plants (Zea mays) are watered with an active compound preparation of the desired concentration and infected with Spodoptera frugiperda larvae.
After the desired period of time, the kill in % is determined. 100% means that all larvae have been killed; 0% means that none of the larvae have been killed.

A short description of data set [2]: logP by LC-MS, method [b], acidic range pH 2.7. It counts as physicochemical. The note with it: pH 2.7.
In another data set the test system is Meloidogyne incognita. Kind of data set: Meloidogyne test (spray treatment). It counts as in vivo. The note with it: concentration 20 ppm; lettuce roots. The protocol:
Containers are filled with sand, active compound solution, Meloidogyne incognita egg/larvae suspension and lettuce seeds. The lettuce seeds germinate and the plants develop. On the roots, galls are formed. After the desired period of time, the nematicidal activity is determined by the formation of galls in %. 100% means that no galls were found; 0% means that the number of galls on the treated plants corresponds to that of the untreated control.

The structures appear in SMILES notation.

Take `CN(C)C(=O)c1ccc(Nc2ncc(C(F)(F)F)c(NC3CCC3)n2)cc1` [Compound 221]: the “efficacy (kill in %)” value in data set [1] is not below 80%. The log p in data set [2] was 2.48[b].
As for `CC(=O)Nc1ccc(Nc2ncc(Cl)c(NC3CCC3)n2)cc1Cl` [Compound 118], the “efficacy (nematicidal activity by formation of galls)” value in the data set on Meloidogyne incognita is recorded as more than 80%. In addition, the log p in data set [2] is 1.78[b].
